Measurements published in ChEMBL document CHEMBL1201862, “PubChem BioAssay data set” (2004).
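Compound exposure: 48 hours, 5 concentrations, 96-well plates. GI50 is the concentration that inhibits growth by half.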 Active and inactive are the calls of the source. Cut-off read from the data, not from the text of the source: active = GI50 up to about 1.1 µM and inactive = higher.

What was measured:
Test in all cases: inhibition of tumour cell growth, NCI panel, 48 h
SK-MEL-5 = system: SK-MEL-5
OVCAR-5 = system: OVCAR-5
DU-145 = system: DU-145
CAKI-1 = system: CAKI-1
SF-295 = system: SF-295
SK-MEL-28 = system: SK-MEL-28
SNB-78 = system: SNB-78
HOP-92 = system: HOP-92
IGROV-1 = system: IGROV-1
SK-MEL-2 = system: SK-MEL-2
DLD-1 = system: DLD-1
SN12C = system: SN12C
Malme-3M = system: Malme-3M
M19-MEL = system: M19-MEL
MDA-N = system: MDA-N
U-251 = system: U-251
MDA-MB-435 = system: MDA-MB-435
UACC-257 = system: UACC-257
DMS-114 = system: DMS-114
UACC-62 = system: UACC-62
OVCAR-3 = system: OVCAR-3
XF498 = system: XF498
HCC 2998 = system: HCC 2998
ACHN = system: ACHN
NCI/ADR-RES = system: NCI/ADR-RES
T47D = system: T47D
NCI-H460 = system: NCI-H460
TK-10 = system: TK-10
SNB-75 = system: SNB-75
HOP-62 = system: HOP-62
OVCAR-4 = system: OVCAR-4
Hs-578T = system: Hs-578T
A549 = system: A549
HCT-116 = system: HCT-116
SR = system: SR
HCT-15 = system: HCT-15
PC-3 = system: PC-3
HT-29 = system: HT-29
OVCAR-8 = system: OVCAR-8
BT-549 = system: BT-549
KM-20L2 = system: KM-20L2
NCI-H226 = system: NCI-H226
NCI-H23 = system: NCI-H23
SNB-19 = system: SNB-19
MOLT-4 = system: MOLT-4
DMS-273 = system: DMS-273
SK-OV-3 = system: SK-OV-3
COLO 205 = system: COLO 205
HOP-18 = system: HOP-18
UO-31 = system: UO-31
LOX IMVI = system: LOX IMVI
SW-620 = system: SW-620
RXF 393 = system: RXF 393
MCF7 = system: MCF7
SF-539 = system: SF-539
KM12 = system: KM12
A498 = system: A498
786-0 = system: 786-0
MDA-MB-231 = system: MDA-MB-231
RPMI-8226 = system: RPMI-8226
M14 = system: M14
SF-268 = system: SF-268
NCI-H522 = system: NCI-H522
EKVX = system: EKVX

For `CCCC(=O)OC1C(C(O)CO)OC2OC(C)(C)OC21` (centres undefined), the GI50 (SK-MEL-5) was > 100 µM (inactive), the GI50 (OVCAR-5) was > 100 µM (inactive) and the GI50 (DU-145) was > 100 µM (inactive). The GI50 (CAKI-1) was > 100 µM (inactive), the GI50 (SF-295) was > 100 µM (inactive) and the GI50 (SK-MEL-28) was > 100 µM (inactive). For the same compound, the GI50 (SNB-78) was > 100 µM (inactive), the GI50 (HOP-92) was > 100 µM (inactive) and the GI50 (IGROV-1) was > 100 µM (inactive). For the same compound, the GI50 (SK-MEL-2) was > 100 µM (inactive), the GI50 (DLD-1) was > 100 µM (inactive) and the GI50 (SN12C) was > 100 µM (inactive). The GI50 (Malme-3M) was > 100 µM (inactive), the GI50 (M19-MEL) was > 100 µM (inactive) and the GI50 (MDA-N) was > 100 µM (inactive). The GI50 (U-251) was > 100 µM (inactive), the GI50 (MDA-MB-435) was > 100 µM (inactive) and the GI50 (UACC-257) was > 100 µM (inactive). The GI50 (DMS-114) was > 100 µM (inactive), the GI50 (UACC-62) was > 100 µM (inactive) and the GI50 (OVCAR-3) was > 100 µM (inactive). For the same compound, the GI50 (XF498) was > 100 µM (inactive), the GI50 (HCC 2998) was > 100 µM (inactive) and the GI50 (ACHN) was > 100 µM (inactive). For the same compound, the GI50 (NCI/ADR-RES) was > 100 µM (inactive), the GI50 (T47D) was > 100 µM (inactive) and the GI50 (NCI-H460) was > 100 µM (inactive). For the same compound, the GI50 (TK-10) was > 100 µM (inactive), the GI50 (SNB-75) was > 100 µM (inactive) and the GI50 (HOP-62) was > 100 µM (inactive). The GI50 (OVCAR-4) was > 100 µM (inactive), the GI50 (Hs-578T) was > 100 µM (inactive) and the GI50 (A549) was > 100 µM (inactive). For the same compound, the GI50 (HCT-116) was > 100 µM (inactive), the GI50 (SR) was > 100 µM (inactive) and the GI50 (HCT-15) was greater than 100 µM. The GI50 (PC-3) was > 100 µM (inactive), the GI50 (HT-29) was > 100 µM (inactive) and the GI50 (OVCAR-8) was > 100 µM (inactive). For the same compound, the GI50 (BT-549) was > 100 µM (inactive), the GI50 (KM-20L2) was > 100 µM (inactive) and the GI50 (NCI-H226) was > 100 µM (inactive). For the same compound, the GI50 (NCI-H23) was > 100 µM (inactive), the GI50 (SNB-19) was > 100 µM (inactive) and the GI50 (MOLT-4) was > 100 µM (inactive). The GI50 (DMS-273) was > 100 µM (inactive), the GI50 (SK-OV-3) was > 100 µM (inactive) and the GI50 (COLO 205) was > 100 µM (inactive). The GI50 (HOP-18) was > 100 µM (inactive), the GI50 (UO-31) was > 100 µM (inactive) and the GI50 (LOX IMVI) was > 100 µM (inactive). The GI50 (SW-620) was > 100 µM (inactive), the GI50 (RXF 393) was > 100 µM (inactive) and the GI50 (MCF7) was > 100 µM (inactive). For the same compound, the GI50 (SF-539) was > 100 µM (inactive), the GI50 (KM12) was > 100 µM (inactive) and the GI50 (A498) was > 100 µM (inactive). For the same compound, the GI50 (786-0) was > 100 µM (inactive), the GI50 (MDA-MB-231) was > 100 µM (inactive) and the GI50 (RPMI-8226) was > 100 µM (inactive). The GI50 (M14) was > 100 µM (inactive), the GI50 (SF-268) was > 100 µM (inactive) and the GI50 (NCI-H522) was > 100 µM (inactive). The GI50 (EKVX) was > 100 µM (inactive).
